Active and inactive are the calls of the source.
What was measured:
[1] = HEK-293T cell viability reduction – luminescence, B-cell screen hits, cytotoxicity control for BCR NF-kB inhibitor project, dose response (AID 489021); type: functional, cell-based;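 also: HEK-293T cells carrying an NF-kB luciferase reporter; cells exposed to compound for about 14 hours before viability readout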
[2] = target: Eukaryotic translation initiation factor 4E (Mus musculus, UniProt P63073); assay: blockers of eIF4G binding by eIF4E – biochemical, TR-FRET, dose response (AID 855); type: functional;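 also: potency for disrupting eIF4E binding to eIF4GI seen as loss of FRET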
[3] = target: Glyceraldehyde-3-phosphate dehydrogenase (Homo sapiens, UniProt P04406)
[4] = target: T1, Alkaline phosphatase, tissue-nonspecific isozyme (Homo sapiens, UniProt P05186); assay: potency against alkaline phosphatase TNAP – biochemical, luminescent, dose response, SAR follow-up (AID 1056)
T1 sequence (P05186 whole entry): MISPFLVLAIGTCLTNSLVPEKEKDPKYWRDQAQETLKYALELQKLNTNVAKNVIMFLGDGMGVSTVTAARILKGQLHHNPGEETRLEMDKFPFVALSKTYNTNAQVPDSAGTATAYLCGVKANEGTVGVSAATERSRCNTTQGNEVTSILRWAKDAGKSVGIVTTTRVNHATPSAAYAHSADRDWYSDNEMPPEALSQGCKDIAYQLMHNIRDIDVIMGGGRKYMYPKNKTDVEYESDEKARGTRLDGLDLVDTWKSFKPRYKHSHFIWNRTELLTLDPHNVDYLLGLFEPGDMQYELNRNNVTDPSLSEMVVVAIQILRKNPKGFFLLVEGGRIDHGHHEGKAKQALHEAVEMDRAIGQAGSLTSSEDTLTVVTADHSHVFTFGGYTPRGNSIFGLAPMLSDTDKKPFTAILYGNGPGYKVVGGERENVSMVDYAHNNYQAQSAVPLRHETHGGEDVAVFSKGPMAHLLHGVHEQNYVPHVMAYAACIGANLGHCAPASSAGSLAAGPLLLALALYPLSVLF

Trypanosoma cruzi = assay: anti-trypanosomal activity in host cells – cell-based, plate reader, dry powder, set 3, dose response (AID 493197); type: functional
[5] = target: T2, Eukaryotic translation initiation factor 2-alpha kinase 3 (Homo sapiens, UniProt Q9NZJ5); assay: Counterscreen assay for PERK inhibitors: Dose response cell-based high throughput screening assay to measure inhibition of PERK at 6 hours. [Related pubchem assays: 1522, 1416 ]; type: functional
T2 sequence (Q9NZJ5 whole entry): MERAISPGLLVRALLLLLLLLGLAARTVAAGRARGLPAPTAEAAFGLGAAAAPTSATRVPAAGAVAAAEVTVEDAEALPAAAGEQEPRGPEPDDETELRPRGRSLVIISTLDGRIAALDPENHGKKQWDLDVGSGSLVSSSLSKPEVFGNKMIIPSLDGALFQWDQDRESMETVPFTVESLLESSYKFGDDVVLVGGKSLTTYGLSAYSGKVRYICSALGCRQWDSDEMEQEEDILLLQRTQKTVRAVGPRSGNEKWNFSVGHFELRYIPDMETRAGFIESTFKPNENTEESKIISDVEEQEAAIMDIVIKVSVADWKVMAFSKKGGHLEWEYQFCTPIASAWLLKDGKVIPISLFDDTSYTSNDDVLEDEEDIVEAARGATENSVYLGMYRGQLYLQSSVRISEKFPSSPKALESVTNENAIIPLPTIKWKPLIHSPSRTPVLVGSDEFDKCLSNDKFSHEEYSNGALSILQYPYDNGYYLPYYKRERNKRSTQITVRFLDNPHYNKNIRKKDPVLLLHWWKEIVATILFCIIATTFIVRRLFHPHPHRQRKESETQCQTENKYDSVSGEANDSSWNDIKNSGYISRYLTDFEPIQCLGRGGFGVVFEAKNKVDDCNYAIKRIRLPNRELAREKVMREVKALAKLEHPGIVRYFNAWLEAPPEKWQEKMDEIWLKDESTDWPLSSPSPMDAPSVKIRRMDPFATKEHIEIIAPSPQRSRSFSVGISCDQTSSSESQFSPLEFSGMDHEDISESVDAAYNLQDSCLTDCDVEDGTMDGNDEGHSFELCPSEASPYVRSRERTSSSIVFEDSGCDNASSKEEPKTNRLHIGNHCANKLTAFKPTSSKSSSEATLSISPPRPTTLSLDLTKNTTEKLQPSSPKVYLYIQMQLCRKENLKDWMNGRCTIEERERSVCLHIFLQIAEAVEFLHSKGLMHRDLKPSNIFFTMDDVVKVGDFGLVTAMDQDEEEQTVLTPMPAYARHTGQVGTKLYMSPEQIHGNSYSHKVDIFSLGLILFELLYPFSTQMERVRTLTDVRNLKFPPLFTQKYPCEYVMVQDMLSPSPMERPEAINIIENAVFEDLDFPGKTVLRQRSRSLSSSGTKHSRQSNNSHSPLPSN

[6] = target: T2, Eukaryotic translation initiation factor 2-alpha kinase 3; assay: Dose response cell-based high-throughput screening assay to measure PERK inhibition. [Related pubchem assays: 1416 ]; type: functional
Coagulation factor XII = target: T3, Coagulation factor XII (Homo sapiens, UniProt P00748); assay: Factor XIIa Dose Response Confirmation from Single Well HTS. [Related pubchem assays (depositor defined):AID701]; type: functional
T3 sequence (P00748 whole entry): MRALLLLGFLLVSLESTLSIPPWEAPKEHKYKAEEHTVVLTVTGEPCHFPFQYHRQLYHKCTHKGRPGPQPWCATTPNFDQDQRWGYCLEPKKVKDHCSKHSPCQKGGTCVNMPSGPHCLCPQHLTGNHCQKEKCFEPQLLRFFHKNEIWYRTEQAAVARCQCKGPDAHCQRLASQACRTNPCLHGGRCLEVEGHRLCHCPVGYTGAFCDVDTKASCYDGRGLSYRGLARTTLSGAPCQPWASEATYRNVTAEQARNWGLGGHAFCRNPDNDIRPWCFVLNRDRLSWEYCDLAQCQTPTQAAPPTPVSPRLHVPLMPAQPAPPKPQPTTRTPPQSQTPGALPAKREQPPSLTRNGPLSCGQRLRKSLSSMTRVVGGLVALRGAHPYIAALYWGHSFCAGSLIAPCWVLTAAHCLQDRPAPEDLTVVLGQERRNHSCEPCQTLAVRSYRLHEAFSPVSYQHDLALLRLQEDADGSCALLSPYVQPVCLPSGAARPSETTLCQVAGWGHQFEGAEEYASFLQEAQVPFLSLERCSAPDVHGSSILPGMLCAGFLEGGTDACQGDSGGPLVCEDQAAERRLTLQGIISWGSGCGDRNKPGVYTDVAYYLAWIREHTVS

[7] = target: Intestinal-type alkaline phosphatase (Homo sapiens, UniProt P09923); assay: Dose Response confirmation of uHTS hits from a small molecule inhibitors of human intestinal alkaline phosphatase via a luminescent assay. [Related pubchem assays (depositor defined):AID2544, AID2574]; type: functional
[8] = target: T4, RNA-binding protein pos-1 (Caenorhabditis elegans, UniProt G5EF15); assay: disruptors of C. elegans POS-1 RNA interaction – biochemical, fluorescence polarization, dose response (AID 1964);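 also: purified POS-1 fused to maltose binding protein made in E. coli; potency of compounds blocking POS-1 binding to fluorescent RNA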
T4 sequence (G5EF15 whole entry): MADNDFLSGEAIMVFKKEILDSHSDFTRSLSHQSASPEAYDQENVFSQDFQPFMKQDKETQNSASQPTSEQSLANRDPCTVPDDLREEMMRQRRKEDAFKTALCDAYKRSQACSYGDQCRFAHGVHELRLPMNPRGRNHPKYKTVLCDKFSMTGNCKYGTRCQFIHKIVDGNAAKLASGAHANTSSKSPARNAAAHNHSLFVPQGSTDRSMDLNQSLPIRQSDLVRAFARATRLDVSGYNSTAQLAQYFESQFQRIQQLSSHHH

[9] = target: T5, Runt-related transcription factor 1/Core-binding factor subunit beta (Homo sapiens, UniProt Q01196+Q13951); assay: disruptors of Runt domain/CBFb-SMMHC interaction – biochemical, FRET, Cerulean-Runt, Venus-CBFb-SMMHC, uHTS, […] (AID 1434); type: protein assay
[10] = target: T5, Runt-related transcription factor 1/Core-binding factor subunit beta; assay: Runt domain/CBFb-SMMHC interaction disruptors – biochemical, TR-FRET (AID 1438); type: protein assay
[11] = target: T6, Zinc finger protein mex-5 (Caenorhabditis elegans, UniProt Q9XUB2); assay: potency of MEX-5 RNA-binding blockers – biochemical, C. elegans, fluorescence polarization, dose response (AID 1960)
T6 sequence (Q9XUB2 whole entry): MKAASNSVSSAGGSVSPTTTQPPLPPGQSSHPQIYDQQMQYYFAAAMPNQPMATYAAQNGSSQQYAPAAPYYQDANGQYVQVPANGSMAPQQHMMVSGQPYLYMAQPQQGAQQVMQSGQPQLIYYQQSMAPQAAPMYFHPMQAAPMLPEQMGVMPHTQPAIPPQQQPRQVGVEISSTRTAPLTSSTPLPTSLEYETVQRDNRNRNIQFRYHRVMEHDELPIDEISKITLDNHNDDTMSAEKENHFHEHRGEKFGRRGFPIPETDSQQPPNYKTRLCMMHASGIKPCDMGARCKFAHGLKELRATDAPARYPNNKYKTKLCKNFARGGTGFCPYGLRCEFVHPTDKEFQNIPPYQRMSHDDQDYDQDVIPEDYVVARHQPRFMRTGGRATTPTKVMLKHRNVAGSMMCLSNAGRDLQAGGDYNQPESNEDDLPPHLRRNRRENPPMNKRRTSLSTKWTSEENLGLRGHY

[12] = target: DNA dC->dU-editing enzyme APOBEC-3G (Homo sapiens, UniProt Q9HC16); assay: Dose Response confirmation of small molecule APOBEC3G DNA Deaminase Inhibitors via a fluorescence-based single-stranded DNA deaminase assay. [Related pubchem assays (depositor defined):AID493012, AID493028]; type: functional
[13] = target: DNA dC->dU-editing enzyme APOBEC-3A (Homo sapiens, UniProt P31941); assay: A3A deaminase inhibition for selectivity – biochemical, dose response (AID 504722); type: functional
[14] = target: Glucose-6-phosphate 1-dehydrogenase (Homo sapiens, UniProt P11413); assay: inhibition of Homo sapiens G6PD, dose series – biochemical, fluorescence, selectivity assay for P. falciparum G6PD inhibitor project, dose response (AID 504792); type: functional
[15] = target: Induced myeloid leukemia cell differentiation protein Mcl-1 (Homo sapiens, UniProt Q07820); type: functional
[16] = target: T7, Rac GTPase-activating protein 1 (Homo sapiens, UniProt Q9H0H5); assay: blockers of MgcRacGAP-driven Rac1 GTP hydrolysis – biochemical, ADP Hunter fluorescence, primary and confirmatory, confirmation (AID 624330); type: functional
T7 sequence (Q9H0H5 whole entry): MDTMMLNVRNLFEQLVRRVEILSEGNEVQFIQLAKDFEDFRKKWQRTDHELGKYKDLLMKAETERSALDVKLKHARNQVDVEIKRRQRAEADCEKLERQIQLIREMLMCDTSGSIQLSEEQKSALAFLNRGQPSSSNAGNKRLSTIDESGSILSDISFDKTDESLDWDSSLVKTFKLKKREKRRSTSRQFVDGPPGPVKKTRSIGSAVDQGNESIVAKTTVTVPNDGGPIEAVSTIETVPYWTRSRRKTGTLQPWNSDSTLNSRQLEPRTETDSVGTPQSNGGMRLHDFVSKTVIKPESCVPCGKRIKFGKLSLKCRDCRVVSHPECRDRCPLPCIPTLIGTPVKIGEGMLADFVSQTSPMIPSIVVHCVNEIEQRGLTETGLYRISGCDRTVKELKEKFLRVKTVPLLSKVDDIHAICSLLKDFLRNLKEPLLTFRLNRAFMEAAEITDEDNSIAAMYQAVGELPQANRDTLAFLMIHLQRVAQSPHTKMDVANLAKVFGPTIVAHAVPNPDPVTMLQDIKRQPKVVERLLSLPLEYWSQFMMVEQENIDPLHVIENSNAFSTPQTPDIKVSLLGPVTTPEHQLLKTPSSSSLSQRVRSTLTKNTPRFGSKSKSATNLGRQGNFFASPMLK

CAAX prenyl protease 2 = CAAX prenyl protease 2 (Saccharomyces cerevisiae S288c, UniProt Q03530); type: biochemical
Trypsin = Trypsin (Sus scrofa, UniProt P00761); assay: trypsin protease activity blockade – biochemical, quenched peptide fluorescence, cherry-pick, selectivity assay for Rce1 protease inhibitor project, dose response (AID 488789)
Trypsin, sequence (P00761 whole entry): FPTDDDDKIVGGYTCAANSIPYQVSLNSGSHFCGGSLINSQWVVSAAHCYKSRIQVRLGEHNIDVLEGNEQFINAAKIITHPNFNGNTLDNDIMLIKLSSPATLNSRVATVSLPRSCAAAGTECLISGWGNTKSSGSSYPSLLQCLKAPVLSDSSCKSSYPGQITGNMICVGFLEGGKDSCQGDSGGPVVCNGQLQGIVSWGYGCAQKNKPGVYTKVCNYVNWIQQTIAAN

Eukaryotic translation initiation factor 4E, sequence (P63073 whole entry): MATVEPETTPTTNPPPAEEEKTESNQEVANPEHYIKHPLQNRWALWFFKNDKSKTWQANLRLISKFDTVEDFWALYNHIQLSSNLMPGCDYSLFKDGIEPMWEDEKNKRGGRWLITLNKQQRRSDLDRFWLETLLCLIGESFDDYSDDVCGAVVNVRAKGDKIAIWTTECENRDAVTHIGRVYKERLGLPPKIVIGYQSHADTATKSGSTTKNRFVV
DNA dC->dU-editing enzyme APOBEC-3A, sequence (P31941 whole entry): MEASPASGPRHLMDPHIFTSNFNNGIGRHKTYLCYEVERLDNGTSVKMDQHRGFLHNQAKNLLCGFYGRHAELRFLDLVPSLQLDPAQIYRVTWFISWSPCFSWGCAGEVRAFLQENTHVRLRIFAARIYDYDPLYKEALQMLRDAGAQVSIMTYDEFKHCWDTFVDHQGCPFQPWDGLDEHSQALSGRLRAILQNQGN
DNA dC->dU-editing enzyme APOBEC-3G, sequence (Q9HC16 whole entry): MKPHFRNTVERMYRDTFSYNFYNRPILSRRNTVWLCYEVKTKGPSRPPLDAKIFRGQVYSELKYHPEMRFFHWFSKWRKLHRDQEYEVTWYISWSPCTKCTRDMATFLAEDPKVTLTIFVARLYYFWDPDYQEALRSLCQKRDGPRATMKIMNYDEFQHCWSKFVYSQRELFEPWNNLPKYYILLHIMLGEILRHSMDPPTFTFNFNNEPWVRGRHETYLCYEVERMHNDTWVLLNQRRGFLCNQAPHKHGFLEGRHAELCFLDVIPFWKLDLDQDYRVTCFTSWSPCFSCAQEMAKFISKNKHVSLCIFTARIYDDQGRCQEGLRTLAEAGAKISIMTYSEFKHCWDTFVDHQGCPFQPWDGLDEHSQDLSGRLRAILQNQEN
T5 sequence (Q01196 whole entry, the tested form may be a part): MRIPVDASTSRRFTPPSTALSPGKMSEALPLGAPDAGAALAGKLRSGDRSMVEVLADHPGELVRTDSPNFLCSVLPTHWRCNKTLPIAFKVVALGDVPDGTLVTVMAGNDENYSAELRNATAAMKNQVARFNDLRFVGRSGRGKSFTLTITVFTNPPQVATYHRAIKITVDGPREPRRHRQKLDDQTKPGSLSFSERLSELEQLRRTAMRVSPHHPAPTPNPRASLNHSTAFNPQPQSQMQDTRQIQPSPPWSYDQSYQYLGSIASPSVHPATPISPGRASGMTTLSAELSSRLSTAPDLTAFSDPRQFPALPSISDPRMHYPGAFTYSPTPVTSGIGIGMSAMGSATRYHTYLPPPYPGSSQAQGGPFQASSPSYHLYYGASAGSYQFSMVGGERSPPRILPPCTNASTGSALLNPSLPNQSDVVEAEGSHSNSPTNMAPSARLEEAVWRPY
T5 sequence (Q13951 whole entry, the tested form may be a part): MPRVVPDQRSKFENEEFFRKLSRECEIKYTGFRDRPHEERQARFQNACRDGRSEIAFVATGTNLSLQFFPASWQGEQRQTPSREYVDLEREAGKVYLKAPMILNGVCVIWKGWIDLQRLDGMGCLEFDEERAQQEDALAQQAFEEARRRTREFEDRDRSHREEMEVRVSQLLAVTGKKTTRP
Glyceraldehyde-3-phosphate dehydrogenase, sequence (P04406 whole entry): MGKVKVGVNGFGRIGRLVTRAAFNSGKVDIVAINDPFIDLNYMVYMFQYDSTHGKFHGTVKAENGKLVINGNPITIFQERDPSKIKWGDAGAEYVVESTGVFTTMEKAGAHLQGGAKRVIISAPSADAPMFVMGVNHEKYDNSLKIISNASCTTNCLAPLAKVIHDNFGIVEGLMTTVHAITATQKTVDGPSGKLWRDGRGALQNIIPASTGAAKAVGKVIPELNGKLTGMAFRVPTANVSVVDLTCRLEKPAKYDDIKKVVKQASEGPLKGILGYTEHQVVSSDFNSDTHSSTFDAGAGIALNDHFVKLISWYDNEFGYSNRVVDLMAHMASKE
Induced myeloid leukemia cell differentiation protein Mcl-1, sequence (Q07820 whole entry): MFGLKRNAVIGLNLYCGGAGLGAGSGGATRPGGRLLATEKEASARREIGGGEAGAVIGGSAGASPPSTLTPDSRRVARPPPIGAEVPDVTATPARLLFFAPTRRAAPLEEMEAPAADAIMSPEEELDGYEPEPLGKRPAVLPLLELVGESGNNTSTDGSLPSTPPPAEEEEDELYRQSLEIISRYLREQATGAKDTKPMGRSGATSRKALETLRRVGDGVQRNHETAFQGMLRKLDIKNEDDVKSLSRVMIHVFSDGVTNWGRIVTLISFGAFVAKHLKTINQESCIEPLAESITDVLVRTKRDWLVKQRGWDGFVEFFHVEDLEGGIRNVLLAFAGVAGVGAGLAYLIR
CAAX prenyl protease 2, sequence (Q03530 whole entry): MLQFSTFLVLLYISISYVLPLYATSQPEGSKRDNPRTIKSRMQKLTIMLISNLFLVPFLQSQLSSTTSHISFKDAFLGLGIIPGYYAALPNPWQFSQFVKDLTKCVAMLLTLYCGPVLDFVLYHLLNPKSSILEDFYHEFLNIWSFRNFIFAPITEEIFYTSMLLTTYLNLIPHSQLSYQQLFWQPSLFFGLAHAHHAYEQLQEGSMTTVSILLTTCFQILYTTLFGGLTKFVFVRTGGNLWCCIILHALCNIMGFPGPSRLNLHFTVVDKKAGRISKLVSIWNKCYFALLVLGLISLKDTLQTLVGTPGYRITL
Glucose-6-phosphate 1-dehydrogenase, sequence (P11413 whole entry): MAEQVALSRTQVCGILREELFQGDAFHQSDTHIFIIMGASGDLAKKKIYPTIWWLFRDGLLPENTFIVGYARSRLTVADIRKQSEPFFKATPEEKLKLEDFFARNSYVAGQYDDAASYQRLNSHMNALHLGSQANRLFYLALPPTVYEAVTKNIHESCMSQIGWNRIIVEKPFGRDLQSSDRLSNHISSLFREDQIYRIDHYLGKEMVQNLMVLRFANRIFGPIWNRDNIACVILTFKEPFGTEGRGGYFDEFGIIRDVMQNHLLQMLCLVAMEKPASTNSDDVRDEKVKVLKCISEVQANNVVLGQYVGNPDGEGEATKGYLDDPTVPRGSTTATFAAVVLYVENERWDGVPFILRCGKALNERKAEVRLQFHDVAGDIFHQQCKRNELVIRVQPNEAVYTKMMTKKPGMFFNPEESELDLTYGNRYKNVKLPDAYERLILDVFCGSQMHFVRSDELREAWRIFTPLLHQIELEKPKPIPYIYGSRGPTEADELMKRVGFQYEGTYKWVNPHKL
Intestinal-type alkaline phosphatase, sequence (P09923 whole entry, the tested form may be a part): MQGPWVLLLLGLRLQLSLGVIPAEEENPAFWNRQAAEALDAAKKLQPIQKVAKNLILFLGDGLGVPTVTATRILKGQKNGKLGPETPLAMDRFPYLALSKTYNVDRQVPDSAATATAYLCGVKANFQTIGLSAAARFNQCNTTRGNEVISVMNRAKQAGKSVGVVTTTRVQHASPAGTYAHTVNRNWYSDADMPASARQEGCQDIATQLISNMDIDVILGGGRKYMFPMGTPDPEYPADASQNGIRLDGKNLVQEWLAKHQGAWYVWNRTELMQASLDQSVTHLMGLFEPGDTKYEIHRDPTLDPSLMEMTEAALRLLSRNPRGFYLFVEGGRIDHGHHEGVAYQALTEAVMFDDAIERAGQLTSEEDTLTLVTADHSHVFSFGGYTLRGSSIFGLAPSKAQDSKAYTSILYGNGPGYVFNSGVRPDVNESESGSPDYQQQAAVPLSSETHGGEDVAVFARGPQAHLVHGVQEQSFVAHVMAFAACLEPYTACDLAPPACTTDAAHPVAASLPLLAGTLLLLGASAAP

COC(=O)c1c(NC(=O)c2cccc([N+](=O)[O-])c2)sc(C(N)=O)c1C
IC50 [1]: > 80 µM (inactive)

CSc1cccc(NC(=S)N(Cc2ccc(C)cc2)Cc2cccnc2)c1
IC50 [2]: 50 µM (inactive)

COc1ccccc1C(=O)Nc1cnc2ccccc2c1
IC50 [3]: > 10 µM (inconclusive) | IC50 [4]: > 10 µM (inactive)

CN(Cc1ccccc1)C(=O)C1CCCN(Cc2ccccc2)C1 (stereo not given)
AC50 (Trypanosoma cruzi): 5.07 µM (active)

N/C(=N\N=C\c1ccc([N+](=O)[O-])cc1)c1nonc1N
EC50 [5]: > 55.7 µM (not active) | EC50 [6]: > 55.7 µM (not active)

Cc1ccc(-c2n[nH]c(=O)c3ccccc23)cc1S(=O)(=O)NCCO
IC50 (Coagulation factor XII): > 50 µM (inactive)

C/C(=N/N=C1\SCC(=O)N1c1ccccc1)c1ccc(C)cc1
EC50 [5]: > 55.7 µM (not active) | EC50 [6]: > 55.7 µM (not active)

COc1ccc(CCN2C(=O)c3ccncc3C2=O)cc1OC
IC50 [7]: > 100 µM (inactive)

Oc1ccc(-c2cnns2)c(O)c1
EC50 [8]: 45.5 µM (active) | IC50 [9]: 31.5 µM (active) | IC50 [10]: 19.9 µM (active) | EC50 [11]: 10.4 µM (active)

Cc1ccc(-c2cn3c(S)nnc3s2)cc1
IC50 [12]: 2.61 µM (active) | IC50 [13]: > 100 µM (inactive)

COc1cc(/C=N/n2cc(-c3ccccc3)nc2S)cc(OC)c1O
IC50 [14]: > 80 µM (inactive) | IC50 [12]: 5.9 µM (active) | IC50 [13]: > 100 µM (inactive)

O=C1C=CC(=Nc2nc(O)c(-c3c(O)[nH]c4ccccc34)s2)C=C1
IC50 [15]: 1.67 µM (active) | IC50 [2]: 50 µM (inactive) | IC50 [16]: 59.2 µM (active)

COC(=O)c1cnn2c3c(c(C)nc12)CCCC3
AC50 (CAAX prenyl protease 2): 10.3 µM (active) | AC50 (Trypsin): 8.29 µM (active)
